In patent US8017611B2, “Pyridine and pyrazine derivatives -083” (AstraZeneca AB, priority 2007, dated 2011) one finds IC50 data, which are given here for one compound.

pIC50: −log10 of the molar value. Where two headings read alike, the source gives them in different places.

This assay has as its target T1, Axl expressed on NCI H1299 lung large cell carcinoma cells (Homo sapiens, UniProt P30530).
T1 sequence (P30530 26-894): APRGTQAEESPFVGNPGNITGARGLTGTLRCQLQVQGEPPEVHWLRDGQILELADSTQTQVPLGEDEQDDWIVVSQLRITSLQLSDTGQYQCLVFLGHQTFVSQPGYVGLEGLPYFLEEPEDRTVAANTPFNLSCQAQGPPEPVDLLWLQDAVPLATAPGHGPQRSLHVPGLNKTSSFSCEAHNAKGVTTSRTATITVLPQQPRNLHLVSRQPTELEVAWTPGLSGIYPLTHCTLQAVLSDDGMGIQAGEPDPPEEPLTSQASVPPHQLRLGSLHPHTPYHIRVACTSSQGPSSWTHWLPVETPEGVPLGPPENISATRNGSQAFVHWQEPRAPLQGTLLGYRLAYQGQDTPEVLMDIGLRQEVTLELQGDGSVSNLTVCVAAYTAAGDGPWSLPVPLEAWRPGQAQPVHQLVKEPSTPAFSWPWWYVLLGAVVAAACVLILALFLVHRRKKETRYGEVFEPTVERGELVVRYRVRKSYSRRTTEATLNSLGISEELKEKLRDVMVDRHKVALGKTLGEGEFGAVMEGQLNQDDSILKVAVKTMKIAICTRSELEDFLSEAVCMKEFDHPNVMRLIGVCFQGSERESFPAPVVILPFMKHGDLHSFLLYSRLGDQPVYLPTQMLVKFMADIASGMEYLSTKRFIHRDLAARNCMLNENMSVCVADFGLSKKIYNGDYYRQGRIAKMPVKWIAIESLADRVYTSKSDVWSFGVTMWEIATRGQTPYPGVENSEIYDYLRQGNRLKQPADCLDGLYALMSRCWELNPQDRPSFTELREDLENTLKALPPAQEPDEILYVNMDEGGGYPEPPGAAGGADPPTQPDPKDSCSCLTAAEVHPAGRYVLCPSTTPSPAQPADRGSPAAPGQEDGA
The experiment in a line: Cellular phospho-Axl ELISA assay, Test (b). Particulars: Test (b). In general terms: In an ELISA, binding on a coated surface is turned into a signal by an enzyme label.

Description: This assay uses a conventional ELISA method to determine the ability of test compounds to inhibit phosphorylation of tyrosine residues in Axl.
100 μl Aliquots were seeded into each of the wells of a clear 96 well tissue culture plate and the plates were incubated overnight at 37° C. with 5% CO2 to allow the cells to adhere to the wells.
Aliquots of each compound concentration were added to the cells in each well using the Echo 550 (Labcyte Inc., Sunnyvale, Calif., US). Control cells received DMSO only. The cells were incubated for 2 hours at 37° C. with 5% CO2.
The resultant tissue culture plates were incubated on ice for 30 minutes to ensure full lysis.
The wells were washed 3 times with 250 μl per well of PBS containing 0.05% v/v Tween (PBS/T). The wells were treated with 3% w/v BSA in PBS at ambient temperature for 2 hours and subsequently washed 3 times with 250 μl per well of PBS/T.
50 μl Aliquots of the NCI H1299 cell lysates were added to the ELISA plates.
100 μl Aliquots of substrate solution were added to each of the wells and fluorescence was read on a Tecan Ultra plate reader (Tecan UK Ltd., Reading, Berkshire, UK).

For `CN1CCC(n2cc(-c3cnc(N)c(-c4nc5ccc(F)cc5o4)c3)cn2)CC1` [Example 7.2], the negative-log IC50 (pIC50) was 6.95 (read-out: IC50 versus cellular phospho-Axl, mean recalculated from a larger number of replicates, later recalculated) and ~7.41 (read-out: IC50 versus cellular phospho-Axl, NCI H1299 cells stimulated with GAS6).

The pIC50 is the IC50 on a negative log10 scale, so that one unit is a factor of ten.
